# Assays:
# [1] = system: Nakaseomyces glabratus; assay: Antifungal activity against Candida glabrata 493 by microdilution method; format: functional
# [2] = system: Nakaseomyces glabratus; assay: Antifungal activity against Candida glabrata 531 by microdilution method; format: functional
# [3] = system: Candida albicans; assay: Antifungal activity against Candida albicans 53 by microdilution method; format: functional
# [4] = system: Cryptococcus gattii; assay: Antifungal activity against Cryptococcus gattii after 72 hrs; format: functional, Cryptococcus gattii VGI
# [5] = system: Trichophyton rubrum; assay: Antifungal activity against Trichophyton rubrum after 5 days; format: functional; details: 120 h
# [6] = system: Candida parapsilosis; assay: Antifungal activity against Candida parapsilosis 96 by microdilution method; format: functional; details: Lodderomyces parapsilosis
# [7] = system: Nakaseomyces glabratus; assay: Antifungal activity against Candida glabrata 510 by microdilution method; format: functional
# [8] = system: Nakaseomyces glabratus; assay: Antifungal activity against Candida glabrata 482 by microdilution method; format: functional
# [9] = system: Nakaseomyces glabratus; assay: Antifungal activity against Candida glabrata 507 by microdilution method; format: functional
# [10] = system: Candida albicans; assay: Antifungal activity against Candida albicans 498 by microdilution method; format: functional
# [11] = system: Candida tropicalis; assay: Antifungal activity against Candida tropicalis 166 by microdilution method; format: functional
# [12] = system: Cryptococcus neoformans; assay: Antifungal activity against Cryptococcus neoformans after 72 hrs; format: functional
# [13] = system: Nakaseomyces glabratus; assay: Antifungal activity against Candida glabrata 587 by microdilution method; format: functional
# [14] = system: Candida albicans; assay: Antifungal activity against Candida albicans ATCC 10231 by microdilution method; format: functional
# [15] = system: Pichia kudriavzevii; assay: Antifungal activity against Candida krusei 168 by microdilution method; format: functional
# [16] = system: Candida albicans; assay: Antifungal activity against Candida albicans 501 by microdilution method; format: functional
# [17] = system: Candida parapsilosis; assay: Antifungal activity against Candida parapsilosis 90/2224; format: functional; details: Lodderomyces parapsilosis
# [18] = system: Trichophyton rubrum; assay: Antifungal activity against Trichophyton rubrum NBRC 5467 by microdilution method; format: functional
# [19] = system: Aspergillus fumigatus; assay: Antifungal activity against Aspergillus fumigatus NBRC 4400 by microdilution method; format: functional
# [20] = system: Nakaseomyces glabratus; assay: Antifungal activity against Candida glabrata WT-5; format: functional
# [21] = system: Candida albicans; assay: Antifungal activity against Candida albicans NBRC 1385 by microdilution method; format: functional
# [22] = system: Pichia kudriavzevii; assay: Antifungal activity against Candida krusei CK25; format: functional
# [23] = system: Pichia kudriavzevii; assay: Antifungal activity against Candida krusei ATCC 6258; format: functional
# [24] = system: Trichophyton mentagrophytes; assay: Antifungal activity against Trichophyton mentagrophytes IFM 46027 by microdilution method; format: functional
# [25] = system: Candida parapsilosis; assay: Antifungal activity against Candida parapsilosis ATCC 22014; format: functional; details: Lodderomyces parapsilosis
# [26] = system: Nakaseomyces glabratus; assay: Antifungal activity against Candida glabrata ATCC 90030; format: functional
# [27] = system: Trichophyton rubrum; assay: Antifungal activity against Trichophyton rubrum ATCC MYA3108 by CLSI-based microdilution method; format: functional
# [28] = system: Trichophyton rubrum; assay: Antifungal activity against Trichophyton rubrum deltaTruMDR2 by CLSI-based microdilution method; format: functional
# [29] = system: Candida parapsilosis; assay: Antifungal activity against Candida parapsilosis after 48 hrs by broth micro dilution method; format: functional; details: Lodderomyces parapsilosis
# [30] = system: Candida albicans; assay: Antifungal activity against Candida albicans after 48 hrs by broth micro dilution method; format: functional
# [31] = system: Cryptococcus neoformans; assay: Antifungal activity against Cryptococcus neoformans after 48 hrs by broth micro dilution method; format: functional
# [32] = system: Candida albicans; assay: Antifungal activity against Candida albicans; format: functional, organism-based
# [33] = system: Cryptococcus neoformans; assay: Antifungal activity against Cryptococcus neoformans; format: functional
# [34] = system: Trichophyton rubrum; assay: Antifungal activity against Trichophyton rubrum; format: functional
# [35] = system: Candida albicans; assay: Antifungal activity against Candida albicans ATCC 10231 after 48 hrs by CLSI-based broth microdilution method; format: functional; details: ATCC 10231, 48 h
# [36] = system: Saccharomyces cerevisiae; assay: Antifungal activity against Saccharomyces cerevisiae ATCC 9763 after 48 hrs by CLSI-based broth microdilution method; format: functional; details: ATCC 9763, 48 h
# [37] = system: Trichophyton mentagrophytes; assay: Antifungal activity against Trichophyton mentagrophytes after 5 days; format: functional; details: 120 h
# [38] = system: Candida tropicalis; assay: Antifungal activity against Candida tropicalis CCC 131-2000 after 48 hrs by CLSI-based broth microdilution method; format: functional; details: CCC 131-2000, 48 h
# [39] = system: Nannizzia gypsea; assay: Antifungal activity against Microsporum gypseum after 5 days; format: functional; details: 120 h
# [40] = system: Cryptococcus neoformans; assay: Antifungal activity against Cryptococcus neoformans ATCC 32264 after 48 hrs by CLSI-based broth microdilution method; format: functional; details: ATCC 32264, 48 h
# [41] = system: Trichophyton tonsurans; assay: Antifungal activity against Trichophyton tonsurans after 5 days; format: functional; details: 120 h
Structure (SMILES),MIC [1] [µg/mL],MIC [2] [µg/mL],MIC [3] [µg/mL],MIC [6] [µg/mL],MIC [7] [µg/mL],MIC [8] [µg/mL],MIC [9] [µg/mL],MIC [10] [µg/mL],MIC [11] [µg/mL],MIC [13] [µg/mL],MIC [14] [µg/mL],MIC [15] [µg/mL],MIC [16] [µg/mL],other results
O=c1c(O)c(-c2ccc(O)c(O)c2)oc2cc(O)ccc12 [FISETIN],7.8 to 15.6,7.8 to 15.6,> 83,> 83,7.8 to 15.6,7.8 to 15.6,7.8 to 15.6,> 83,> 83,7.8 to 15.6,> 83,> 83,> 83,MIC [4]: 128 µg/mL; MIC [5]: 64 µg/mL; MIC [12]: 128 µg/mL
O=c1cc(-c2ccccc2)oc2ccccc12 [FLAVONE],62.5,62.5,> 83,> 83,62.5,62.5,62.5,> 83,> 83,62.5,> 83,–,> 83,MIC [17]: 5.4 µg/mL; MIC [18]: 120 µM; MIC50 [6]: 13 to 104 µg/mL; MIC [19]: 230 µM; MIC [20]: 52.7 µg/mL; MIC [21]: 30 µM; MIC [22]: 2.7 µg/mL; MIC50 [11]: 13 to 104 µg/mL; MIC [23]: 2.7 µg/mL; MIC [24]: 60 µM; MIC [25]: 5.4 µg/mL; MIC [26]: 52.7 µg/mL
O=c1c(O)c(-c2ccccc2)oc2ccccc12 [FLAVONOL],3.9 to 15.6,3.9 to 15.6,> 83,> 83,3.9 to 15.6,3.9 to 15.6,3.9 to 15.6,> 83,> 83,3.9 to 15.6,> 83,> 83,> 83,–
O=c1c(-c2ccc(O)cc2)coc2cc(O)cc(O)c12 [GENISTEIN],–,–,–,–,–,–,–,–,–,–,–,–,–,MIC [27]: > 1000 µg/mL; MIC [28]: > 1000 µg/mL
O=c1c(O[C@@H]2O[C@H](CO)[C@H](O)[C@H](O)[C@H]2O)c(-c2ccc(O)c(O)c2)oc2cc(O)cc(O)c12 [HYPEROSIDE],–,–,–,–,–,–,–,–,–,–,–,–,–,MIC [29]: 128 µg/mL; MIC [30]: 256 µg/mL; MIC [31]: 128 µg/mL
CC(C)=CCc1c(O)ccc(C(=O)/C=C/c2ccc(O)cc2)c1O [ISOBAVACHALCONE],–,–,–,–,–,–,–,–,–,–,–,–,–,MIC50 [32]: 3 µg/mL; MIC50 [33]: 7 µg/mL
O=c1c(O)c(-c2ccc(O)cc2)oc2cc(O)cc(O)c12 [KAEMPFEROL],31.2,31.2,> 83,> 83,31.2,31.2,31.2,> 83,> 83,31.2,> 83,> 83,> 83,MIC [32]: 256 to 512 µg/mL
C=CC(C)(C)c1cc(/C=C/C(=O)c2ccc(O)cc2)c(OC)cc1O [LICOAGROCHACONE A],–,–,–,–,–,–,–,–,–,–,–,–,–,MFC [32]: 150 µM; MIC [32]: 62.4 to 150 µM; MIC [34]: 11.5 µM
O=c1cc(-c2ccc(O)c(O)c2)oc2cc(O)cc(O)c12 [LUTEOLIN],3.9 to 7.8,3.9 to 7.8,> 83,> 83,3.9 to 7.8,3.9 to 7.8,3.9 to 7.8,> 83,> 83,3.9 to 7.8,> 83,–,> 83,MIC [17]: 5.4 µg/mL; MIC [18]: 120 µM; MIC50 [6]: 13 to 104 µg/mL; MIC [19]: 230 µM; MIC [20]: 52.7 µg/mL; MIC [21]: 30 µM; MIC [22]: 2.7 µg/mL; MIC50 [11]: 13 to 104 µg/mL; MIC [23]: 2.7 µg/mL; MIC [34]: 250 µg/mL; MIC [24]: 60 µM; MIC [25]: 5.4 µg/mL; MIC [26]: 52.7 µg/mL
O=c1c(O)c(-c2cc(O)c(O)c(O)c2)oc2cc(O)cc(O)c12 [MYRICETIN],3.9 to 15.7,3.9 to 15.7,16 to 64,16,3.9 to 15.7,3.9 to 15.7,3.9 to 15.7,16 to 64,64,3.9 to 15.7,16 to 64,64,16 to 64,MIC [35]: 31.2 µg/mL; MIC [36]: 31.2 µg/mL; MIC [4]: 128 µg/mL; MIC [5]: 4 to 128 µg/mL; MIC [37]: 4 to 128 µg/mL; MIC [38]: 31.2 µg/mL; MIC [39]: 4 to 128 µg/mL; MIC [40]: 31.2 µg/mL; MIC [12]: 8 to 128 µg/mL; MIC [41]: 4 to 128 µg/mL; MIC [26]: 6.79 µg/mL
C[C@@H]1O[C@@H](Oc2c(-c3ccc(O)c(O)c3)oc3cc(O)cc(O)c3c2=O)[C@H](O)[C@H](O)[C@H]1O [QUERCITRIN],7.8 to 62.5,7.8 to 62.5,> 83,> 83,7.8 to 62.5,7.8 to 62.5,7.8 to 62.5,> 83,> 83,7.8 to 62.5,> 83,> 83,> 83,–
C[C@@H]1O[C@@H](OC[C@H]2O[C@@H](Oc3c(-c4ccc(O)c(O)c4)oc4cc(O)cc(O)c4c3=O)[C@H](O)[C@@H](O)[C@@H]2O)[C@H](O)[C@H](O)[C@H]1O [RUTIN],–,–,–,–,–,–,–,–,–,–,–,–,–,MIC [29]: > 256 µg/mL; MIC [30]: > 256 µg/mL; MIC [31]: > 256 µg/mL
COc1c(O)cc(O)c2c(=O)cc(-c3ccccc3)oc12 [WOGONIN],–,–,–,–,–,–,–,–,–,–,–,–,–,MIC [18]: 60 µg/mL; MIC [19]: 230 µg/mL; MIC [24]: 60 µg/mL
